Converted amounts (≈) assume the structure as drawn. Where two headings read alike, the source gives them in different places.
Assays:
S. pyogenes A-9604 = test: M.I.C., tube dilution; format: cell-based; conditions: Streptococcus pyogenes, A9604; overnight incubation at 37° C., Nutrient Broth; read-out: MIC
E. coli A20341-1 = test: M.I.C., tube dilution; format: cell-based; conditions: Escherichia coli
[1] = Blood levels in mice after intramuscular administration; conditions: mouse, blood, im, 20 mg/kg;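 further: compounds dissolved in 0.1 M phosphate buffer at pH 7, data from one experiment using four mice for each compound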
Text: Compounds were solubilized in 0.1 M phosphate buffer pH 7.
a single test; 4 mice used per compound.
Compounds were solubilized in 0.1 M phosphate buffer, pH 7.
on a single test; 4 mice per compound.

P. aeruginosa A21213 = test: M.I.C., tube dilution; format: cell-based; conditions: Pseudomonas aeruginosa, A21213, overnight incubation at 37° C., Nutrient Broth; read-out: MIC
S. pneumoniae A-9585 = test: M.I.C., tube dilution; format: cell-based; conditions: Streptococcus pneumoniae, A9585; overnight incubation at 37° C., Nutrient Broth; read-out: MIC
E. coli A15119 = test: M.I.C., tube dilution; format: cell-based; conditions: Escherichia coli, A15119
P. vulgaris A21559 = test: M.I.C., tube dilution; format: cell-based; conditions: Proteus vulgaris, A21559, overnight incubation at 37° C., Nutrient Broth; read-out: MIC
E. coli A-15119 = test: Protective effect in intramuscular treatment of infected mice; format: in vivo; conditions: Escherichia coli, read-out: PD50/treatment
Experimental: (§1) The PD50 (dose in mg/kg required to give protection to 50% of the infected mice) is indicated.
with drugs 0 and 2 hours postinfection.
(§2) The PD50 (dose in mg/kg) required to give protection to 50% of the infected mice is indicated.

K. pneumoniae A9664 = test: as above; format: in vivo; conditions: Klebsiella pneumoniae
Text: as §2

H. influenzae A-9833 = test: M.I.C., tube dilution; format: cell-based; conditions: Haemophilus influenzae, A9833; overnight incubation at 37° C., Nutrient Broth
P. mirabilis A-9900 = test: Protective effect in intramuscular treatment of infected mice; format: in vivo; conditions: Proteus mirabilis, mice, i.m., read-out: PD50/treatment
Experimental: as §1
with drugs 0 and 2 hours postinfection.
as §2

S. aureus A-9606 = test: as above; format: in vivo; conditions: Staphylococcus aureus, read-out: PD50/treatment
Experimental: as §1
with drugs 0 and 2 hours postinfection.
as §2

B. fragilis A22862 = test: M.I.C., tube dilution; format: cell-based; conditions: Bacteroides fragilis, overnight incubation at 37° C., Nutrient Broth
H. influenzae A21518 = test: M.I.C., tube dilution; format: cell-based; conditions: Haemophilus influenzae, overnight incubation at 37° C., Nutrient Broth
P. aeruginosa A-9843a = test: animal or person; format: in vivo, mice; conditions: Pseudomonas aeruginosa, A9843A, in Mus musculus, im, read-out: PD50/treatment
Experimental: as §1
with drugs 0 and 2 hours postinfection.
as §2

S. faecalis A20688 = test: M.I.C., tube dilution; format: cell-based; conditions: Enterococcus faecalis, A20688, overnight incubation at 37° C., Nutrient Broth; read-out: MIC
S. aureus A-9537 = test: M.I.C., tube dilution; format: cell-based; conditions: Staphylococcus aureus, read-out: MIC
[2] = tested on: S. aureus A15097 (Meth-res.); test: M.I.C., tube dilution; format: cell-based; conditions: Staphylococcus aureus, overnight incubation at 37° C.
P. aeruginosa A24081 = test: Protective effect in intramuscular treatment of infected mice; format: in vivo; conditions: Pseudomonas aeruginosa, read-out: PD50/treatment
Text: as §2

K. pneumoniae A-9664 = test: M.I.C., tube dilution; format: cell-based; conditions: Klebsiella pneumoniae, A9664, overnight incubation at 37° C., Nutrient Broth
S. marcescens A20019 = test: M.I.C., tube dilution; format: cell-based; conditions: Serratia marcescens, A20019; overnight incubation at 37° C., Nutrient Broth
K. pneumoniae A20468 = test: M.I.C., tube dilution; format: cell-based; conditions: Klebsiella pneumoniae, A20468, overnight incubation at 37° C., Nutrient Broth
P. rettgeri A22424 = test: M.I.C., tube dilution; format: cell-based; conditions: Providencia rettgeri, A22424
E. cloacae A-9659 = test: M.I.C., tube dilution; format: cell-based; conditions: Enterobacter cloacae, A9659
[3] = im, K. pneumoniae A9664, read-out: PD50/treatment
[4] = im, mice, i.m., P. aeruginosa A24081
[5] = im, mice, i.m., S. aureus A9606
[6] = A203411, overnight incubation at 37° C., Nutrient Broth, read-out: MIC
[7] = overnight incubation at 37° C., Nutrient Broth, read-out: MIC

SMILES | MIC (S. pyogenes A-9604) | AUC [1] | Cmax [1] | half-life [1] | MIC (P. aeruginosa A21213) | MIC (S. pneumoniae A-9585) | MIC (P. vulgaris A21559) | ED50 (P. aeruginosa A-9843a) | MIC (S. faecalis A20688) | MIC (S. aureus A-9537; A9537, +50% serum) | further results
C[C@@H](O)[C@H]1C(=O)N2C(C(=O)[O-])=C(SCCc3cc[n+](C)cc3)C[C@H]12 [Example 2] | 1 ng/mL (≈ 0.00287 µM) | 5300 ng·h/mL | 13900 ng/mL | 9 min | 2 µg/mL (≈ 5.74 µM) | 1 ng/mL (≈ 0.00287 µM) | 0.016 µg/mL (≈ 0.0459 µM) | – | – | – | MIC (E. coli A20341-1; A203411, table 2, no inoculum dilution printed, read-out: MIC): 0.016 µg/mL (≈ 0.0459 µM); MIC (E. coli A15119; table 2, no inoculum dilution printed, read-out: MIC): 0.016 µg/mL (≈ 0.0459 µM)
C[C@@H](O)[C@H]1C(=O)N2C(C(=O)[O-])=C(SCCc3cccc[n+]3C)C[C@H]12 [Example 5, 3-(N-Methylpyridine-2-yl-ethanethio)-6α-[1-(R)-hydroxyethyl]-7-oxo-1-azabicyclo(3.2.0)hept-2-ene-2-carboxylate] | – | – | – | – | 2 µg/mL (≈ 5.74 µM) | – | 0.016 µg/mL (≈ 0.0459 µM) | 1.6 mg/kg | – | – | ED50 (E. coli A-15119; A15119, im, mice, i.m., E. coli, strain not given): 4 mg/kg; ED50 (K. pneumoniae A9664; A9664, im, i.m., K. pneumoniae, strain not given, read-out: PD50/treatment): 3 mg/kg; MIC (H. influenzae A-9833): 4 µg/mL (≈ 11.5 µM); ED50 (P. mirabilis A-9900; A9900, im, P. mirabilis, strain not given): 10 mg/kg; ED50 (S. aureus A-9606; A9606, im, mice, i.m., S. aureus, strain not given): 0.2 mg/kg; MIC (B. fragilis A22862): 0.03 µg/mL (≈ 0.0861 µM); MIC (H. influenzae A21518): 4 µg/mL (≈ 11.5 µM)
CCC[n+]1ccc(CSC2=C(C(=O)[O-])N3C(=O)[C@H]([C@@H](C)O)[C@H]3C2)cc1 [Example 6, 3-(1-Propylpyridine-4-yl-methanethio)-6α-[1-(R)-hydroxyethyl]-7-oxo-1-azabicyclo(3.2.0)hept-2-ene-2-carboxylate] | – | 8500 ng·h/mL | 17700 ng/mL | 9 min | 1 µg/mL (≈ 2.76 µM) | – | 0.06 µg/mL (≈ 0.166 µM) | 0.4 mg/kg | 0.5 µg/mL (≈ 1.38 µM) | 0.06 µg/mL (≈ 0.166 µM) | MIC (B. fragilis A22862): 0.03 µg/mL (≈ 0.0828 µM); MIC (E. coli A20341-1; A203411, overnight incubation at 37° C., Nutrient Broth): 0.06 µg/mL (≈ 0.166 µM); MIC [2]: 4 µg/mL (≈ 11 µM); MIC (E. coli A15119; overnight incubation at 37° C., Nutrient Broth): 0.06 µg/mL (≈ 0.166 µM)
Cc1ccc[n+](C)c1CSC1=C(C(=O)[O-])N2C(=O)[C@H]([C@@H](C)O)[C@H]2C1 [Example 7, 3-(N-Methyl-3-methylpyridine-2-methanethio)-6α-[1-(R)-hydroxyethyl]-7-oxo-1-azabicyclo(3.2.0)hept-2-ene-2-carboxylate] | – | 11800 ng·h/mL | 19200 ng/mL | 11 min | – | – | 0.008 µg/mL (≈ 0.023 µM) | 0.2 mg/kg | – | – | ED50 (E. coli A-15119; A15119, im): 0.2 mg/kg; ED50 (K. pneumoniae A9664; [3]): 1 mg/kg; ED50 (P. mirabilis A-9900; im, P. mirabilis A9900): 2.4 mg/kg; ED50 (S. aureus A-9606; A9606, im): 0.2 mg/kg; MIC (B. fragilis A22862): 0.016 µg/mL (≈ 0.0459 µM); ED50 (P. aeruginosa A24081; [4]): 0.1 mg/kg; MIC [2]: 2 µg/mL (≈ 5.74 µM)
Cc1scc(CSC2=C(C(=O)[O-])N3C(=O)[C@H]([C@@H](C)O)[C@H]3C2)[n+]1C [Example 8, 3-(2-Methyl-N-methyl-thiazole-4-yl-methanethio)-6-α-[1-(R)-hydroxyethyl]-7-oxo-1-azabicyclo(3.2.0)hept-2-ene-2-carboxylate] | – | 10500 ng·h/mL | 18800 ng/mL | 11 min | – | – | 0.03 µg/mL (≈ 0.0846 µM) | 0.19 mg/kg | 0.5 µg/mL (≈ 1.41 µM) | – | ED50 (E. coli A-15119; im, mice, i.m., E. coli A15119): 0.86 mg/kg; ED50 (K. pneumoniae A9664; [3]): 1.8 mg/kg; ED50 (P. mirabilis A-9900; im, P. mirabilis A9900): 1.4 mg/kg; ED50 (S. aureus A-9606; [5]): 0.21 mg/kg; ED50 (P. aeruginosa A24081; [4]): 0.33 mg/kg
C[C@@H](O)[C@H]1C(=O)N2C(C(=O)[O-])=C(SCc3n(C)cc[n+]3C)C[C@H]12 [Example 9, 3-(N,N'-Dimethylimidazole-2-yl-methanethio)-6α-[1-(R)-hydroxyethyl]-7-oxo-1-azabicyclo(3.2.0)hept-2-ene-2-carboxylate] | 1 ng/mL (≈ 0.00296 µM) | 8500 ng·h/mL | 16700 ng/mL | 12 min | – | 1 ng/mL (≈ 0.00296 µM) | 0.008 µg/mL (≈ 0.0237 µM) | 0.19 mg/kg | – | 0.008 µg/mL (≈ 0.0237 µM) | ED50 (E. coli A-15119; im, mice, i.m., E. coli A15119): 1.2 mg/kg; ED50 (K. pneumoniae A9664; [3]): 1.8 mg/kg; ED50 (P. mirabilis A-9900; im, P. mirabilis A9900): 7.1 mg/kg; ED50 (P. aeruginosa A24081; A24081, im): 0.19 mg/kg
Cc1sc(CSC2=C(C(=O)[O-])N3C(=O)[C@H]([C@@H](C)O)[C@H]3C2)c(C)[n+]1C [Example 10, 3-(2,3,4-Trimethylthiazole-5-yl-methanethio)-6α-[1-(R)-hydroxyethyl]-7-oxo-1-azabicyclo(3.2.0)hept-2-ene-2-carboxylate] | 1 ng/mL (≈ 0.00271 µM) | 9500 ng·h/mL | 20100 ng/mL | 11 min | 2 µg/mL (≈ 5.43 µM) | 1 ng/mL (≈ 0.00271 µM) | 0.016 µg/mL (≈ 0.0434 µM) | – | – | – | MIC (K. pneumoniae A-9664): 0.06 µg/mL (≈ 0.163 µM); MIC (S. marcescens A20019): 0.06 µg/mL (≈ 0.163 µM)
CC(SC1=C(C(=O)[O-])N2C(=O)[C@H]([C@@H](C)O)[C@H]2C1)c1cc[n+](C)cc1 (stereo partly shown) [Example 12] | – | – | – | – | 2 µg/mL (≈ 5.74 µM) | 2 ng/mL (≈ 0.00574 µM) | 0.016 µg/mL (≈ 0.0459 µM) | 1.8 mg/kg | 0.5 µg/mL (≈ 1.44 µM) | 0.016 µg/mL (≈ 0.0459 µM) | MIC (K. pneumoniae A20468): 0.06 µg/mL (≈ 0.172 µM); ED50 (S. aureus A-9606; [5]): 0.89 mg/kg; MIC (P. rettgeri A22424): 0.13 µg/mL (≈ 0.373 µM); MIC (E. coli A20341-1; [6]): 0.008 µg/mL (≈ 0.023 µM); MIC (S. aureus A-9537; A9537, overnight incubation at 37° C., Nutrient Broth): 0.008 µg/mL (≈ 0.023 µM); MIC (E. cloacae A-9659): 0.06 µg/mL (≈ 0.172 µM)
Cc1c(CSC2=C(C(=O)[O-])N3C(=O)[C@H]([C@@H](C)O)[C@H]3C2)ccc[n+]1C [Example 14, 3-(2-Methyl-N-methylpyridine-3-yl-methanethio)-6α[1-(R)-hydroxyethyl]-7-oxo-1-azabicyclo(3.2.0)hept-2-ene-2-carboxylate] | 0.5 ng/mL (≈ 0.00144 µM) | 7600 ng·h/mL | 15800 ng/mL | 13 min | 0.5 µg/mL (≈ 1.44 µM) | 0.5 ng/mL (≈ 0.00144 µM) | 0.016 µg/mL (≈ 0.0459 µM) | 0.45 mg/kg | – | – | ED50 (S. aureus A-9606; [5]): 0.07 mg/kg
C[C@@H](O)[C@H]1C(=O)N2C(C(=O)[O-])=C(SCc3cn(C)n[n+]3C)C[C@H]12 [Example 15 "A", 3-[4-(N,N-dimethyl-1,2,3-triazolium)methylthio]-6α-[1-(R)-hydroxyethyl]-7-oxo-1-azabicyclo(3.2.0)hept-2-ene-2-carboxylate] | 0.5 ng/mL (≈ 0.00148 µM) | 9500 ng·h/mL | 16700 ng/mL | 12 min | – | 0.5 ng/mL (≈ 0.00148 µM) | 0.008 µg/mL (≈ 0.0236 µM) | 0.39 mg/kg | – | – | –
C[C@@H](O)[C@H]1C(=O)N2C(C(=O)[O-])=C(SCc3cn(CC(=O)O)n[n+]3C)C[C@H]12 [Example 18, Potassium 3-[4-(1-carboxylatomethyl-3-methyl-1,2,3-triazolium)-methanethio]-6α-[1-(R)-hydroxyethyl]-7-oxo-1-azabicyclo[3.2.0]hept-2-ene-2-carboxylate] | 2000 ng/mL | 3900 ng·h/mL | 14900 ng/mL | 6 min | 63 µg/mL | 1000 ng/mL | – | – | 63 µg/mL | > 63 µg/mL | MIC (K. pneumoniae A20468; read-out: MIC): 63 µg/mL; MIC (E. coli A20341-1; [6]): 16 µg/mL; MIC (E. cloacae A-9659; [7]): 63 µg/mL; MIC (E. coli A15119; [7]): 16 µg/mL

Reference: US4732977A, “Carbapenem antibiotics” (priority 1986, dated 1988)
